Experimental data as given in patent publication US4724233A, “Therapeutical application of phosphonylmethoxyalkyl adenines” (Stichting Rega VZW, priority 1985, dated 1988).
In brackets after ≈: the same amount, converted by molar mass. Entries after “also recorded” stand apart in the source; their conditions may differ. Like-named read-outs stand apart in the source and are kept apart here.

Assays:
HSV-2 (strain) 196 = test: inhibition of cytopathic effect of HSV-2 strain 196; assay type: cell-based, herpes simplex virus type 2; conditions: Table 4, HSV-2 196, PRK cells; for EC50: Human alphaherpesvirus 2, read-out: MIC50
CMV (strain) Davis = test: inhibition of CMV strain Davis in HEL cells; assay type: cell-based, cytomegalovirus; conditions: Human betaherpesvirus 5, Table 5, read-out: MIC50
Herpes simplex I (KOS) = test: inhibition of cytopathic effect of herpes simplex 1 (KOS); assay type: cell-based, herpes simplex virus type 1; conditions: PRK cells; for EC50: Human alphaherpesvirus 1, read-out: MIC50
TK^- herpes viruses = conditions: Prusoff et al.; cited from earlier work
VZV (strain) YS = test: microbe, parasite or virus in culture; assay type: cell-based, varicella-zoster virus; conditions: Human alphaherpesvirus 3, Table 5, HEL cells, read-out: MIC50
HSV-1 (strain) F = test: inhibition of cytopathic effect of HSV-1 strain F; assay type: cell-based, herpes simplex virus type 1; conditions: Table 4, HSV-1 F, PRK cells; for EC50: Human alphaherpesvirus 1, read-out: MIC50
[1] = test system: HSV-1 (strain) TK^- C1101; test: inhibition of cytopathic effect of HSV-1 TK- strain C1101; assay type: cell-based, herpes simplex virus type 1; conditions: for EC50: Human alphaherpesvirus 1, PRK, read-out: MIC50
HSV-2 (strain) Lyons = test: inhibition of cytopathic effect of HSV-2 strain Lyons; assay type: cell-based, herpes simplex virus type 2; conditions: Table 4, HSV-2 Lyons, PRK cells; for EC50: Human alphaherpesvirus 2, read-out: MIC50
VZV (strain) OKa = test: microbe, parasite or virus in culture; assay type: cell-based, varicella-zoster virus; conditions: Human alphaherpesvirus 3, HEL, read-out: MIC50
HSV-1 (strain) McIntyre = test: inhibition of cytopathic effect of HSV-1 strain McIntyre; assay type: cell-based, herpes simplex virus type 1; conditions: Table 4, HSV-1 McIntyre, PRK cells; for EC50: Human alphaherpesvirus 1, read-out: MIC50
VZV (strain) TK^- YSR = test: microbe, parasite or virus in culture; assay type: cell-based, varicella-zoster virus; conditions: Human alphaherpesvirus 3, HEL, read-out: MIC50
CMV (strain) AD 169 = test: inhibition of CMV strain AD 169 in HEL cells; assay type: cell-based, cytomegalovirus; conditions: Human betaherpesvirus 5; Table 5; CMV AD 169, HEL cells; read-out: MIC50
Herpes simplex 2 (G) = test: inhibition of cytopathic effect of herpes simplex 2 (G); assay type: cell-based, herpes simplex virus type 2; conditions: PRK cells; for EC50: Human alphaherpesvirus 2, PRK, read-out: MIC50
[2] = test system: HSV-1 (strain) TK^- B2006; test: inhibition of cytopathic effect of HSV-1 TK- strain B2006; assay type: cell-based, herpes simplex virus type 1; conditions: for EC50: Human alphaherpesvirus 1, PRK, read-out: MIC50
VZV (strain) TK^- 07-1 = test: microbe, parasite or virus in culture; assay type: cell-based, varicella-zoster virus; conditions: Human alphaherpesvirus 3, HEL, read-out: MIC50
Polio 1 = test: microbe, parasite or virus in culture; assay type: cell-based
Sindbis = test: inhibition of cytopathic effect of Sindbis; assay type: cell-based; conditions: Table 3, Vero B cells
DNA-viruses = assay type: cell-based
Vesicular stomatitis = test: microbe, parasite or virus in culture; assay type: cell-based
Vaccinia = test: microbe, parasite or virus in culture; assay type: cell-based
[3] = test system: herpes simplex virus type 1 (HSV-1) (strain KOS); assay type: cell-based; conditions: PRK cells
vaccinia virus (VV) = assay type: cell-based; conditions: PRK cells, average of two determinations
Measles = test: inhibition of cytopathic effect of measles; assay type: cell-based; conditions: Table 3, Vero Flow cells
Reovirus = test: inhibition of cytopathic effect of reovirus; assay type: cell-based; conditions: Table 3, Vero B cells
Moloney sarcoma = test: inhibition of Moloney sarcoma virus; assay type: cell-based, Moloney mouse sarcoma virus; conditions: Table 3, MO cells
in vitro = conditions: rabbit, prk cells
Parainfluenza 3 = test: inhibition of cytopathic effect of parainfluenza 3; assay type: cell-based; conditions: Table 3, Vero B cells
Coxsackie B4 = test: inhibition of cytopathic effect of Coxsackie B4; assay type: cell-based; conditions: Table 3, Vero B, HeLa cells
[4] = antimetabolic activity: incorporation of 3H-labeled precursors into primary rabbit kidney cells; conditions: rabbit, prk cells
PRK cells [5] = conditions: 72 h
PRK cells [6] = test: antimetabolic activity: incorporation of 3H-labeled precursors into primary rabbit kidney cells
[7] = 48 h, 10 μg/ml (value in parentheses)

Q: With `O=c1[nH]c(=O)n([C@H]2C[C@H](O)[C@@H](CO)O2)cc1/C=C/Br` [BVDU, (E)-5-(2-bromovinyl)-2'-deoxyuridine, reference compound] as the molecule, how does the EC50 (HSV-2 (strain) 196) read?
A: 70 µg/mL (≈ 210 µM)

Q: And the EC50 (CMV (strain) Davis)?
A: 300 µg/mL (≈ 901 µM)

Q: What about the EC50 (Herpes simplex I (KOS); Table 4, HSV-1 KOS) of the same molecule?
A: 0.02 µg/mL (≈ 0.06 µM)

Q: What about the “activity against TK^- herpes viruses (in words)” value (TK^- herpes viruses) of the same molecule?
A: inactive

Q: What about the EC50 (VZV (strain) YS) of the same molecule?
A: 6 ng/mL (≈ 0.018 µM)

Q: What about the EC50 (HSV-1 (strain) F) of the same molecule?
A: 0.02 µg/mL (≈ 0.06 µM)

Q: And the EC50 [1]?
A: 70 µg/mL (≈ 210 µM)

Q: What about the EC50 (HSV-2 (strain) Lyons) of the same molecule?
A: 7 µg/mL (≈ 21 µM)

Q: What about the EC50 (VZV (strain) OKa) of the same molecule?
A: 7 ng/mL (≈ 0.021 µM)

Q: What about the EC50 (HSV-1 (strain) McIntyre) of the same molecule?
A: 0.02 µg/mL (≈ 0.06 µM)

Q: And the EC50 (VZV (strain) TK^- YSR)?
A: > 400000 ng/mL

Q: And the EC50 (CMV (strain) AD 169)?
A: 200 µg/mL (≈ 600 µM)

Q: What about the EC50 (Herpes simplex 2 (G); Table 4, HSV-2 G) of the same molecule?
A: 2 µg/mL (≈ 6 µM)

Q: And the EC50 [2]?
A: > 200 µg/mL

Q: What about the EC50 (VZV (strain) TK^- 07-1) of the same molecule?
A: > 400000 ng/mL

Q: What does the source list for `Nc1ncnc2c1ncn2C[C@@H](CO)OCP(=O)(O)O` [No. 4, (S)-9-(3-hydroxy-2-phosphonylmethoxypropyl)adenine]?
A: EC50 (HSV-2 (strain) 196): 1 to 3 µg/mL (≈ 3.3 to 9.89 µM); EC50 (Polio 1; HeLa, read-out: MIC50): > 400 µg/mL; EC50 (CMV (strain) Davis): 0.3 µg/mL (≈ 0.989 µM); EC50 (Sindbis; read-out: MIC50): > 400 µg/mL; antiviral activity (in words) (DNA-viruses): the most effective one; also recorded: best antiviral activity; EC50 (Vesicular stomatitis; read-out: MIC50): > 400 µg/mL; EC50 (Herpes simplex I (KOS); Table 3): 1 µg/mL (≈ 3.3 µM); EC50 (Vaccinia; Orthopoxvirus vaccinia, PRK, read-out: MIC50): 0.3 to 1.5 µg/mL (≈ 0.989 to 4.95 µM); Titer of HSV-1 ([3]; 24 h, 100 μg/ml): < 1.3 log10 PFU/ml; Titer of HSV-1 [3, 7]: 4.3 log10 PFU/ml; Titer of HSV-1 ([3]; 48 h, 100 μg/ml): < 1.3 log10 PFU/ml; EC50 (VZV (strain) YS): 4 ng/mL (≈ 0.0132 µM); Titer of VV (vaccinia virus (VV); [7]): < 1.3 log10 PFU/ml; Titer of VV (vaccinia virus (VV); 48 h, 100 μg/ml): < 1.3 log10 PFU/ml; EC50 (Measles; Measles morbillivirus, read-out: MIC50): > 40 µg/mL; EC50 (Reovirus; Reovirus sp., read-out: MIC50): > 40 µg/mL; EC50 (HSV-1 (strain) F): 1 to 3 µg/mL (≈ 3.3 to 9.89 µM); EC50 [1]: 1 µg/mL (≈ 3.3 µM); EC50 (Moloney sarcoma; Mus musculus, read-out: MIC50): 1 µg/mL (≈ 3.3 µM); EC50 (HSV-2 (strain) Lyons): 1 µg/mL (≈ 3.3 µM); EC50 (VZV (strain) OKa): 4 ng/mL (≈ 0.0132 µM); EC50 (HSV-1 (strain) McIntyre): 1 to 3 µg/mL (≈ 3.3 to 9.89 µM); MCC at 72 h (in vitro): ≥ 200 µg/mL; EC50 (VZV (strain) TK^- YSR): 4 ng/mL (≈ 0.0132 µM); EC50 (CMV (strain) AD 169): 0.3 µg/mL (≈ 0.989 µM); EC50 (Herpes simplex 2 (G); Table 3): 1 to 3 µg/mL (≈ 3.3 to 9.89 µM); EC50 (Herpes simplex 2 (G); Table 4, HSV-2 G): 1 to 3 µg/mL (≈ 3.3 to 9.89 µM); EC50 (Parainfluenza 3; read-out: MIC50): > 200 µg/mL; EC50 (Coxsackie B4; Enterovirus B, B4, read-out: MIC50): > 400 µg/mL; EC50 [2]: 1 µg/mL (≈ 3.3 µM); IC50 ([4]; ID50 Leu incorporation, (3H-4,5)Leu): > 400 µg/mL; IC50 ([4]; ID50 Urd incorporation, (3H-5)Urd): > 400 µg/mL; IC50 ([4]; ID50 dThd incorporation, (3H-methyl) dThd): 297 µg/mL (≈ 980 µM); IC50 ([4]; ID50 dUrd incorporation, (3H-1',2')dUrd): 74 µg/mL (≈ 244 µM); EC50 (VZV (strain) TK^- 07-1): 4 ng/mL (≈ 0.0132 µM)

Q: For “(RS)-9-(2(3)hydroxy-3(2)-phosphonylmethoxypropyl)adenine [No. 1]”, which MIC50 (HSV-2 (strain) 196) is on record?
A: 15 to 70 µg/mL

Q: And the “MCC (minimal cytotoxic concentration)” value (PRK cells [5])?
A: ≥ 100 µg/mL

Q: What about the MIC50 (Polio 1; Table 3, HeLa cells) of the same molecule?
A: > 400 µg/mL

Q: What about the MIC50 (Sindbis) of the same molecule?
A: > 400 µg/mL

Q: What about the MIC50 (Vesicular stomatitis; Table 3, HeLa, PRK cells) of the same molecule?
A: > 400 µg/mL

Q: And the MIC50 (Herpes simplex I (KOS); Table 3)?
A: 20 to 30 µg/mL

Q: What about the MIC50 (Herpes simplex I (KOS); Table 4, HSV-1 KOS) of the same molecule?
A: 20 to 30 µg/mL

Q: What about the MIC50 (Vaccinia; Table 3, PRK cells) of the same molecule?
A: 0.7 to 3.0 µg/mL

Q: What about the “Titer of HSV-1” value ([3]; 1 h, 100 μg/ml) of the same molecule?
A: < 1.3 log10 PFU/ml

Q: What about the “Titer of HSV-1” value ([3]; 24 h, 100 μg/ml) of the same molecule?
A: 3.3 log10 PFU/ml

Q: And the “Titer of HSV-1” value ([3]; 48 h, 100 μg/ml)?
A: 4.0 log10 PFU/ml

Q: And the “Titer of HSV-1” value ([3]; 72 h, 100 μg/ml)?
A: 3.9 log10 PFU/ml

Q: What about the “Titer of VV” value (vaccinia virus (VV); 1 h, 100 μg/ml) of the same molecule?
A: 1.7 log10 PFU/ml

Q: What about the “Titer of VV” value (vaccinia virus (VV); 24 h, 100 μg/ml) of the same molecule?
A: 1.7 log10 PFU/ml

Q: What about the “Titer of VV” value (vaccinia virus (VV); 48 h, 100 μg/ml) of the same molecule?
A: 1.2 log10 PFU/ml

Q: And the “Titer of VV” value (vaccinia virus (VV); 72 h, 100 μg/ml)?
A: 1.5 log10 PFU/ml

Q: And the MIC50 (Measles)?
A: > 400 µg/mL

Q: What about the MIC50 (Reovirus) of the same molecule?
A: > 400 µg/mL

Q: And the MIC50 (HSV-1 (strain) F)?
A: 15 to 30 µg/mL

Q: What about the MIC50 ([1]; Table 4, HSV-1 TK^- C1101, PRK cells) of the same molecule?
A: 7 to 20 µg/mL

Q: And the MIC50 (Moloney sarcoma)?
A: > 60 µg/mL

Q: What about the MIC50 (HSV-2 (strain) Lyons) of the same molecule?
A: 7 to 15 µg/mL

Q: What about the MIC50 (HSV-1 (strain) McIntyre) of the same molecule?
A: 30 µg/mL

Q: What about the MIC50 (Herpes simplex 2 (G); Table 3) of the same molecule?
A: 7 to 20 µg/mL

Q: What about the MIC50 (Herpes simplex 2 (G); Table 4, HSV-2 G) of the same molecule?
A: 7 to 20 µg/mL

Q: What about the MIC50 (Parainfluenza 3) of the same molecule?
A: > 200 µg/mL

Q: And the MIC50 (Coxsackie B4)?
A: > 400 µg/mL

Q: And the MIC50 ([2]; Table 4, HSV-1 TK^- B2006, PRK cells)?
A: 7 µg/mL

Q: And the “ID50 dUrd incorporation” value (PRK cells [6]; (3H-1',2')dUrd)?
A: 230 µg/mL

Q: And the “ID50 Leu incorporation” value (PRK cells [6]; (3H-4,5)Leu)?
A: > 400 µg/mL

Q: And the “ID50 Urd incorporation” value (PRK cells [6]; (3H-5)Urd)?
A: > 400 µg/mL

Q: What about the “ID50 dThd incorporation” value (PRK cells [6]; (3H-methyl) dThd) of the same molecule?
A: 250 µg/mL
